Measurements as given in article PMC12700550, “DLL4^+ neutrophils promote Notch1-mediated endothelial PANoptosis to exacerbate acute lung injury in sepsis” (The Journal of Clinical Investigation, 2025).
Several values for one entry are separate records, joined by “and”; a condition that tells them apart may be missing. Equal values may be shown once.

Key:
Type in all cases: in vivo, mouse
[1] = test system: c-GSDMD; experiment: c/t GSDMD in lungs of CLP mice, Western blot; conditions: 10 mg/kg NDI, 20 h; for lung c/t GSDMD (Figure 5D): individual mice, 10 mg/kg
Method: Sepsis was induced in mice by cecal ligation and puncture (CLP) as described previously ([45], [46]). Mice were anesthetized with isoflurane to a surgical plane and placed in a supine position. CLP was performed through a midline laparotomy. The abdomen was shaved and disinfected. Through a 2 cm midline incision, the cecum was exposed and then ligated with a 4-0 silk suture 1 cm proximal from the distal cecal extremity. For 20-hour CLP experiments, the cecum was punctured twice with a 22-gauge needle. A small amount of cecal content was extruded through both holes, and the ligated cecum was returned to the peritoneal cavity. The wound was closed in layers. For 10-day sepsis survival studies, the cecum was punctured once with a 22-gauge needle. A small amount of cecal content was extruded. Mice were allocated to the vehicle and adoptive transfer of DLL4^+ neutrophils or DLL4^– neutrophils groups. Adoptive transfer mice received a retro-orbital injection of 1 × 10^6 cells per mouse DLL4^+ neutrophils or DLL4^– neutrophils in […] phosphate-buffered saline (PBS) immediately after abdominal closure in both the 20-hour experiments and the survival study. Vehicle groups received an equivalent volume of PBS, while treatment groups received NDI 10 mg/kg in […] PBS via retro-orbital injection after CLP. This dose was chosen primarily on the basis of our laboratory’s prior experience, we have consistently used this dose in mouse CLP models with reproducible efficacy and without observable toxicity ([39], [44]). Sham-operated animals underwent a laparotomy without CLP. After closure, the mice received a subcutaneous injection of 0.5 mL of normal saline to overcome surgery-induced dehydration. […]
(§1) PVECs and lung tissue were collected in previous steps. Whole-cell proteins were extracted, and the protein concentration was measured using an ABC protein assay kit (catalog 5000002, Bio-Rad). […] Bands were detected using an Odyssey FC Dual-Mode Imaging system 2800 (LI-COR).

[2] = test system: c-caspase-3; experiment: c/t caspase-3 in lungs of CLP mice, Western blot; conditions: 10 mg/kg NDI, 20 h; for lung c/t caspase-3 (Figure 5E): individual mice, 10 mg/kg
Method: Sepsis was induced in mice by cecal ligation and puncture (CLP) as described previously ([45], [46]). Mice were anesthetized with isoflurane to a surgical plane and placed in a supine position. CLP was performed through a midline laparotomy. The abdomen was shaved and disinfected. Through a 2 cm midline incision, the cecum was exposed and then ligated with a 4-0 silk suture 1 cm proximal from the distal cecal extremity. For 20-hour CLP experiments, the cecum was punctured twice with a 22-gauge needle. A small amount of cecal content was extruded through both holes, and the ligated cecum was returned to the peritoneal cavity. The wound was closed in layers. For 10-day sepsis survival studies, the cecum was punctured once with a 22-gauge needle. A small amount of cecal content was extruded. Mice were allocated to the vehicle and adoptive transfer of DLL4^+ neutrophils or DLL4^– neutrophils groups. […] Vehicle groups received an equivalent volume of PBS, while treatment groups received NDI 10 mg/kg in […] PBS via retro-orbital injection after CLP. This dose was chosen primarily on the basis of our laboratory’s prior experience, we have consistently used this dose in mouse CLP models with reproducible efficacy and without observable toxicity ([39], [44]). Sham-operated animals underwent a laparotomy without CLP. After closure, the mice received a subcutaneous injection of 0.5 mL of normal saline to overcome surgery-induced dehydration. For 20-hour experiments, animals were not injected with antibiotics; however, for survival studies, animals were given 0.5 mg per kg body weight imipenem (lot 4D21K05, WG Critical Care LLC) subcutaneously in 0.5 mL saline once at the end of CLP. All mice were subcutaneously injected with a single dose of 0.1 mg/kg buprenorphine after CLP.
as §1

[3] = test system: C57BL/6 mice, CLP sepsis; experiment: Serum lactate dehydrogenase (LDH), CLP mice; design: serum LDH (Figure 6C): unit not given here; conditions: 20 h; for serum LDH (Figure 6C): 10 mg/kg NDI, individual mice
Method: Sepsis was induced in mice by cecal ligation and puncture (CLP) as described previously ([45], [46]). Mice were anesthetized with isoflurane to a surgical plane and placed in a supine position. CLP was performed through a midline laparotomy. The abdomen was shaved and disinfected. Through a 2 cm midline incision, the cecum was exposed and then ligated with a 4-0 silk suture 1 cm proximal from the distal cecal extremity. […] A small amount of cecal content was extruded through both holes, and the ligated cecum was returned to the peritoneal cavity. The wound was closed in layers. […] A small amount of cecal content was extruded. […] Vehicle groups received an equivalent volume of PBS, while treatment groups received NDI 10 mg/kg in […] PBS via retro-orbital injection after CLP. This dose was chosen primarily on the basis of our laboratory’s prior experience, we have consistently used this dose in mouse CLP models with reproducible efficacy and without observable toxicity ([39], [44]). Sham-operated animals underwent a laparotomy without CLP. After closure, the mice received a subcutaneous injection of 0.5 mL of normal saline to overcome surgery-induced dehydration. […] All mice were subcutaneously injected with a single dose of 0.1 mg/kg buprenorphine after CLP. Serum levels of alanine aminotransferase, aspartate aminotransferase, and lactate dehydrogenase were determined using specific colorimetric enzymatic assays (Pointe Scientific Inc.) according to the manufacturer’s instructions.

## ECAGSPCHNGGTCEDGI [NDI]
[1]; DLL4^+ neutrophils + CLP
  lung c/t GSDMD (Figure 5D): 2.146 and 1.894 and 1.978 and 1.095 and 1.287 and 1.8342
[1]; DLL4^+ neutrophils/sepsis
  effect on lung c-GSDMD: attenuated the expression/activation
[1]; DLL4^– neutrophils + CLP
  lung c/t GSDMD (Figure 5D): 1.599 and 0.7489 and 0.6289 and 1.139 and 1.05
[2]; DLL4^+ neutrophils + CLP
  lung c/t caspase-3 (Figure 5E): 0.946 and 0.8954 and 1.049 and 0.8952 and 1.09 and 1.113 and 0.9785 and 0.9235 and 1.192
[2]; DLL4^+ neutrophils/sepsis
  effect on lung c-caspase-3: attenuated the expression/activation
[2]; DLL4^– neutrophils + CLP
  lung c/t caspase-3 (Figure 5E): 1.224 and 1.151 and 0.8027 and 0.9965 and 0.8798 and 1.281
[3]; DLL4^+ neutrophil-injected CLP mice, 10 mg/kg
  effect on serum LDH: significantly reduced the serum levels of hepatic and cell injury markers and proinflammatory cytokines
[3]; DLL4^+ neutrophils + CLP
  serum LDH (Figure 6C): 147.333 and 112.563 and 68.952 and 111.973 and 140.948 and 125.756 and 107.496 and 149.824 and 137.164 and 20.8187 and 17.4427 and 47.264 and 66.5947 and 58.344 and 58.9333 and 52.4507 and 35.9493
[3]; DLL4^– neutrophils + CLP
  serum LDH (Figure 6C): 149.691 and 73.0773 and 124.349 and 178.568 and 24.752 and 44.7893 and 34.7707 and 33.0027 and 50.0933
